Assay results reported in US10323038B2, “Pyrazole compounds and methods of making and using same” (ABIDE THERAPEUTICS, INC., priority 2015, dated 2019).

Tests used:
MAGL = MAGL (Mus musculus (Mouse), UniProt O35678); assay: In vitro competitive activity-based protein profiling, MAGL (mouse); format: biochemical; conditions: for inhibition at 1 µM: read-out: MAGL % inh. 1 μM (mouse)
Method in brief: (§1)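 Residual MAGL and FAAH activity came from in-gel fluorescence after competition between inhibitor (30 min preincubation, 37° C) and the activity-based probe FP-Rh or HT-01 (30 min, 37° C) in mouse or human tissue or cell proteomes.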

FAAH = FAAH (Mus musculus (Mouse), UniProt O08914); assay: In vitro competitive activity-based protein profiling, FAAH (mouse); format: biochemical; conditions: for inhibition at 1 µM: read-out: FAAH % inh. 1 μM (mouse)
Method in brief: as §1

Sequence of FAAH (O08914 whole entry): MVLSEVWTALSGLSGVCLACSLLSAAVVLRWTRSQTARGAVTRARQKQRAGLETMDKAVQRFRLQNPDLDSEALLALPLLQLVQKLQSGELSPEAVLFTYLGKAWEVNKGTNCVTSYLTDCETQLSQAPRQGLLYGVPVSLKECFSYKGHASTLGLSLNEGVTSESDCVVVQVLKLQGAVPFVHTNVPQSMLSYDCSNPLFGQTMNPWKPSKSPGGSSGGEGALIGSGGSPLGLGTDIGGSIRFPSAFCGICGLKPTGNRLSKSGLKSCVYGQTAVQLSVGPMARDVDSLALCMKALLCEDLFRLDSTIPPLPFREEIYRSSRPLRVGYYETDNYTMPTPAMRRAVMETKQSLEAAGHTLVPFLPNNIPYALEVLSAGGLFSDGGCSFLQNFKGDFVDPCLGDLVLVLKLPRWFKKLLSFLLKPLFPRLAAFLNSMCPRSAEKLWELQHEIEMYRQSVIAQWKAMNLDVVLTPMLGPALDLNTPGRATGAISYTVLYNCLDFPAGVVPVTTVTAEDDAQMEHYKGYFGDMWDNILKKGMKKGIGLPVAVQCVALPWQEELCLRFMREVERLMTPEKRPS
Sequence of MAGL (O35678 whole entry): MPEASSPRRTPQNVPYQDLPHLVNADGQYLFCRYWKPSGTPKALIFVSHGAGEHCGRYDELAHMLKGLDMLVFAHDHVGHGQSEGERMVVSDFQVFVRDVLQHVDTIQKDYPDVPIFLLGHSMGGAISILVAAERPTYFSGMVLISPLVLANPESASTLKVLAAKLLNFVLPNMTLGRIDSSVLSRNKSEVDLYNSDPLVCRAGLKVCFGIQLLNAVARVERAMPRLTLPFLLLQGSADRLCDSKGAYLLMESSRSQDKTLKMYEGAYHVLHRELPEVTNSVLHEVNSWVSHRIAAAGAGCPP

Row | Structure (SMILES) | IC50 (MAGL) | inhibition at 1 µM (MAGL) | IC50 (FAAH) | inhibition at 1 µM (FAAH)
1 | CC(=O)N(C)c1cnn(C(=O)N2CCN(Cc3ccccc3Cl)CC2)c1 [Example 192, N-(1-(4-(2-chlorobenzyl)piperazine-1-carbonyl)-1H-pyrazol-4-yl)-N-methylacetamide] | 0.1 to 1 µM | ≥ 75% | 0.1 to 1 µM | ≥ 75%
2 | CC(=O)N(C)c1cnn(C(=O)N2CCN(Cc3cccc(Cl)c3)CC2)c1 [Example 193, N-(1-(4-(3-chlorobenzyl)piperazine-1-carbonyl)-1H-pyrazol-4-yl)-N-methylacetamide] | 0.1 to 1 µM | ≥ 75% | 0.1 to 1 µM | ≥ 75%
3 | CC(=O)N(C)c1cnn(C(=O)N2CCN(Cc3ccc(Cl)cc3)CC2)c1 [Example 194, N-(1-(4-(4-chlorobenzyl)piperazine-1-carbonyl)-1H-pyrazol-4-yl)-N-methylacetamide] | 0.1 to 1 µM | ≥ 75% | 1 to 10 µM | ≥ 75%
4 | CC(=O)N(C)c1cnn(C(=O)N2CCN(Cc3ccc(C(F)(F)F)cc3N3C4CCC3COC4)CC2)c1 [Example 195, N-(1-(4-(2-(3-oxa-8-azabicyclo[3.2.1]octan-8-yl)-4-(trifluoromethyl)benzyl)piperazine-1-carbonyl)-1H-pyrazol-4-yl)-N-methylacetamide] | ≤ 0.1 µM | ≥ 75% | 1 to 10 µM | 0 to 25%
5 | CC(=O)N(C)c1cnn(C(=O)N2CCN(Cc3ccc(Cl)c(Cl)c3)CC2)c1 [Example 196, N-(1-(4-(3,4-dichlorobenzyl)piperazine-1-carbonyl)-1H-pyrazol-4-yl)-N-methylacetamide] |  | ≥ 75% | 0.1 to 1 µM | ≥ 75%
6 | CC(=O)N(C)c1cnn(C(=O)N2CCN(Cc3ccc(N4CCCC4)cc3)CC2)c1 [Example 197, N-methyl-N-(1-(4-(4-(pyrrolidin-1-yl)benzyl)piperazine-1-carbonyl)-1H-pyrazol-4-yl)acetamide] | 0.1 to 1 µM | ≥ 75% | 0.1 to 1 µM | ≥ 75%
7 | CC(=O)N(C)c1cnn(C(=O)N2CCN(Cc3ccc(C(F)(F)F)cc3)CC2)c1 [Example 198, N-methyl-N-(1-(4-(4-(trifluoromethyl)benzyl)piperazine-1-carbonyl)-1H-pyrazol-4-yl)acetamide] |  | ≥ 75% | 0.1 to 1 µM | ≥ 75%
8 | CC(=O)N(C)c1cnn(C(=O)N2CCN(Cc3ccc(CN4CCOCC4)cc3)CC2)c1 [Example 199, N-methyl-N-(1-(4-(4-(morpholinomethyl)benzyl)piperazine-1-carbonyl)-1H-pyrazol-4-yl)acetamide] |  | 50 to 75% |  | 0 to 25%
9 | CC(=O)N(C)c1cnn(C(=O)N2CCN(Cc3ccc(N4CCOCC4)cc3)CC2)c1 [Example 200, N-methyl-N-(1-(4-(4-morpholinobenzyl)piperazine-1-carbonyl)-1H-pyrazol-4-yl)acetamide] |  | 50 to 75% |  | 0 to 25%
10 | CC(=O)N(C)c1cnn(C(=O)N2CCN(Cc3ccc(-c4ccccc4)cc3C)CC2)c1 [Example 201, N-methyl-N-(1-(4-((3-methylbiphenyl-4 yl)methyl)piperazine-1-carbonyl)-1H-pyrazol-4-yl)acetamide] | ≤ 0.1 µM | ≥ 75% | ≤ 0.1 µM | ≥ 75%
11 | CC(=O)N(C)c1cnn(C(=O)N2CCN(Cc3cccc(Oc4ccccc4)c3)CC2)c1 [Example 202, N-methyl-N-(1-(4-(3-phenoxybenzyl)piperazine-1-carbonyl)-1H-pyrazol-4-yl)acetamide] | ≤ 0.1 µM | ≥ 75% | ≤ 0.1 µM | ≥ 75%
12 | CC(=O)N(C)c1cnn(C(=O)N2CCN(Cc3ccc(N4CCOCC4)cc3Cl)CC2)c1 [Example 203, N-(1-(4-(2-chloro-4-morpholinobenzyl)piperazine-1-carbonyl)-1H-pyrazol-4-yl)-N-methylacetamide] | ≤ 0.1 µM | ≥ 75% | 0.1 to 1 µM | ≥ 75%
13 | CC(=O)N(C)c1cnn(C(=O)N2CCN(Cc3ccc(N4CCOCC4)cc3C)CC2)c1 [Example 204, N-methyl-N-(1-(4-(2-methyl-4-morpholinobenzyl)piperazine-1-carbonyl)-1H-pyrazol-4-yl)acetamide] | 0.1 to 1 µM | ≥ 75% | 0.1 to 1 µM | ≥ 75%
14 | CC(=O)N(C)c1cnn(C(=O)N2CCN(Cc3cccc(F)c3)CC2)c1 [Example 205, N-(1-(4-(3-fluorobenzyl)piperazine-1-carbonyl)-1H-pyrazol-4-yl)-N-methylacetamide] | 0.1 to 1 µM | ≥ 75% | 0.1 to 1 µM | ≥ 75%
15 | CC(=O)N(C)c1cnn(C(=O)N2CCN(Cc3cccc(C)c3)CC2)c1 [Example 206, N-methyl-N-(1-(4-(3-methylbenzyl)piperazine-1-carbonyl)-1H-pyrazol-4-yl)acetamide] | ≤ 0.1 µM | ≥ 75% | 0.1 to 1 µM | ≥ 75%
16 | COc1cccc(CN2CCN(C(=O)n3cc(N(C)C(C)=O)cn3)CC2)c1 [Example 207, N-(1-(4-(3-methoxybenzyl)piperazine-1-carbonyl)-1H-pyrazol-4-yl)-N-methylacetamide] |  | ≥ 75% |  | ≥ 75%
17 | CC(=O)N(C)c1cnn(C(=O)N2CCN(Cc3cccc(N4CCCC4)c3)CC2)c1 [Example 208, N-methyl-N-(1-(4-(3-(pyrrolidin-1-yl)benzyl)piperazine-1-carbonyl)-1H-pyrazol-4-yl)acetamide] | ≤ 0.1 µM | ≥ 75% | 0.1 to 1 µM | ≥ 75%
18 | CC(=O)N(C)c1cnn(C(=O)N2CCN(Cc3cccc(C(F)(F)F)c3)CC2)c1 [Example 209, N-methyl-N-(1-(4-(3-(trifluoromethyl)benzyl)piperazine-1-carbonyl)-1H-pyrazol-4-yl)acetamide] | ≤ 0.1 µM | ≥ 75% | ≤ 0.1 µM | ≥ 75%
19 | CC(=O)N(C)c1cnn(C(=O)N2CCN(Cc3cccc(N4CCOCC4)c3)CC2)c1 [Example 210, N-methyl-N-(1-(4-(3-morpholinobenzyl)piperazine-1-carbonyl)-1H-pyrazol-4-yl)acetamide] |  | ≥ 75% |  | 0 to 25%
20 | CC(=O)N(C)c1cnn(C(=O)N2CCN(Cc3ccccc3F)CC2)c1 [Example 211, N-(1-(4-(2-fluorobenzyl)piperazine-1-carbonyl)-1H-pyrazol-4-yl)-N-methylacetamide] |  | ≥ 75% |  | ≥ 75%
21 | CC(=O)N(C)c1cnn(C(=O)N2CCN(Cc3ccccc3C)CC2)c1 [Example 212, N-methyl-N-(1-(4-(2-methylbenzyl)piperazine-1-carbonyl)-1H-pyrazol-4-yl)acetamide] | 0.1 to 1 µM | ≥ 75% | 0.1 to 1 µM | ≥ 75%
22 | COc1ccccc1CN1CCN(C(=O)n2cc(N(C)C(C)=O)cn2)CC1 [Example 213, N-(1-(4-(2-methoxybenzyl)piperazine-1-carbonyl)-1H-pyrazol-4-yl)-N-methylacetamide] |  | ≥ 75% |  | 0 to 25%
23 | CC(=O)N(C)c1cnn(C(=O)N2CCN(Cc3ccccc3C(F)(F)F)CC2)c1 [Example 214, N-methyl-N-(1-(4-(2-(trifluoromethyl)benzyl)piperazine-1-carbonyl)-1H-pyrazol-4-yl)acetamide] | ≤ 0.1 µM | ≥ 75% | ≤ 0.1 µM | ≥ 75%
24 | CC(=O)N(C)c1cnn(C(=O)N2CCN(Cc3ccccc3N3CCCC3)CC2)c1 [Example 215, N-methyl-N-(1-(4-(2-(pyrrolidin-1-yl)benzyl)piperazine-1-carbonyl)-1H-pyrazol-4-yl)acetamide] |  | ≥ 75% |  | 25 to 50%
25 | CC(=O)N(C)c1cnn(C(=O)N2CCN(Cc3ccccc3N3CCOCC3)CC2)c1 [Example 216, N-methyl-N-(1-(4-(2-morpholinobenzyl)piperazine-1-carbonyl)-1H-pyrazol-4-yl)acetamide] |  | ≥ 75% |  | 0 to 25%
26 | CN(c1cnn(C(=O)N2CCN(Cc3ccc(C(F)(F)F)cc3N3CCCC3)CC2)c1)S(C)(=O)=O [Example 218, N-methyl-N-(1-(4-(2-(pyrrolidin-1-yl)-4-(trifluoromethyl)benzyl)piperazine-1-carbonyl)-1H-pyrazol-4-yl)methanesulfonamide] | 0.1 to 1 µM | ≥ 75% | 1 to 10 µM | 25 to 50%
27 | COc1cc(-c2ccccc2)ccc1CN1CCN(C(=O)n2cc(NS(C)(=O)=O)cn2)CC1 [Example 220, N-(1-(4-((3-methoxy-[1,1′-biphenyl]-4-yl)methyl)piperazine-1-carbonyl)-1H-pyrazol-4-yl)methanesulfonamide] | 0.1 to 1 µM | ≥ 75% | ≤ 0.1 µM | ≥ 75%
28 | CS(=O)(=O)Nc1cnn(C(=O)N2CCN(Cc3ccc(-c4ccccc4)cc3Cl)CC2)c1 [Example 221, N-(1-(4-((3-chloro-[1,1′-biphenyl]-4-yl)methyl)piperazine-1-carbonyl)-1H-pyrazol-4-yl)methanesulfonamide] | 0.1 to 1 µM | ≥ 75% | ≤ 0.1 µM | ≥ 75%
29 | CC(=O)N(C)c1cnn(C(=O)N2CC3CN(Cc4ccc(-c5ccccc5)cc4C)CC3C2)c1 (centres unmarked) [Example 223, N-methyl-N-(1-(5-((3-methyl-[1,1′-biphenyl]-4-yl)methyl)octahydropyrrolo[3,4-c]pyrrole-2-carbonyl)-1H-pyrazol-4-yl)acetamide] | ≤ 0.1 µM | ≥ 75% | ≤ 0.1 µM | ≥ 75%
